Measured values: patent US20250009632A1, “HEIGHT-ADJUSTABLE SPRINKLER” (BTGIN CO., LTD., priority 2021, published 2025)

Legend:
[1] = test system: S. mutans; assay: Analysis of dental plaque reduction (S. mutans attached to glass tube wall, absorbance at 550 nm); format: cell-based, Streptococcus mutans
Description: • 1) A brain heart infusion (BHI) broth (5 ml) containing 1% sucrose was added in 50 ml glass tube, and 50 μl of each of sample extracts by concentrations shown in Table 2 below was added. For a control group, sterilized water was used instead of sample extracts. • 2) S. mutans was inoculated to reach 10^5. • 3) The glass tube was cultured statically in an incubator at 37° C. for 24 hours while tilted at 30°. • 4) After culturing, 5 ml of 0.5 M NaOH solution was added to suspend the cells attached to the wall. • 5) One milliliter of suspension was taken and measured for absorbance at 550 nm. S. mutans strain was cultured statically for 24 hours after inoculation while tilted at 30°. When the culture medium was carefully poured out after the static culture, it was observed that bacteria were attached to the wall of the glass tube (FIG. 1, red arrow). Thereafter, the bacteria were suspended by addition of 0.5 M NaOH, and 1 ml of the suspended solution was measured for absorbance at 550 nm. As a result, there was a reduction in dental plaque from a BTEX-K concentration of 50 μg/ml.

[2] = test system: S. mutans; assay: Amount of organic acid produced in dental plaque (HPLC of S. mutans culture medium); format: cell-based, Streptococcus mutans; details: 48 h culture, high concentration (100 μg/ml)
Description: • 1) To a brain heart infusion (BHI) broth (2 ml), 20 μl of each of sample extracts by concentrations in Table 3 below was added. For a control group, sterilized water was used instead of sample extracts. • 2) S. mutans was inoculated to reach 10^5-10^6. • 3) The cells were cultured in an incubator at 37° C. for 48 hours. • 4) The amount of the acid secreted in the medium was measured using HPLC.
**HPLC: analyzed by the joint equipment research lab of Dankook University Industry-Academia Cooperation (Citric, pyruvic, succinic, lactic, formic, acetic, propionic, isobutyric, butyric, and isovaleric acid).
S. mutans strain was inoculated into 2 ml of the brain heart infusion (BHI) liquid medium at a concentration of 1×10^5 CFU/ml, and a predetermined concentration of each sample was injected, followed by culturing for 48 hours. The culture was centrifuged at 13,000 rpm for 5 minutes, and then the supernatant was transferred to a new tube and filtered with a 0.45 μm syringe filter. Thereafter, HPLC analysis was performed. HPLC analysis conditions are as follows. Mobile phase (Isocratic elution): 10 mM potassium phosphate monobasic (pH 3, a phosphoric acid salt)/MeOH=(98/2), Column oven Temp.: 30° C., flow rate: 1 ml/min, wavelength: 220 nm, and injection amount: 10 μl

SMILES: CC(C)=CCC[C@](C)(O[C@@H]1O[C@H](CO)[C@@H](O)[C@H](O)[C@H]1O)[C@H]1CC[C@]2(C)[C@@H]1[C@H](O)C[C@@H]1[C@@]3(C)CC[C@H](O)C(C)(C)[C@@H]3CC[C@]12C [ginsenoside compound K]
- growth of S. mutans strain ([1]; at 100 μg/ml, as seen in the dental plaque reduction experiment): inhibited
- concentration at which dental plaque reduction was observed ([1]; summary statement, absorbance at 550 nm): 20 µg/mL
- reduction in lactic acid content compared to the control group ([2]; HPLC, p<0.0001): approximately 2 fold
- HPLC peak at retention time of around 4.6 minutes (lactic acid) ([2]; vs control): decreased
